Experimental data published in patent publication US5652124A (priority 1989, dated 1997).
Read-outs that look alike come from different tables or passages of the source. One block for each compound: values may come before it.

What was measured:
dd mice = assay: Acute toxicity test; type: in vivo; conditions: oral, 7 week-old dd mice
Description: As the result, no mouse died when administered with up to […] of the specimen, and higher dose was difficult.

[1] = test system: α-glucosidase (EC 3.2.1.20) derived from pig liver; assay: Stability against hydrolysis by α-glucosidase; type: in vitro ADME
Description: Acid hydrolysis of the α-glucosyl hesperidin led to the formation of 1 mole of rhamnose and 2 moles of D-glucose per 1 mole hesperidin, while an α-glucosidase, obtained by the extraction from pig liver and partial purification, hydrolyzed α-glucosyl hesperidin into hesperidin and D-glucose.

[2] = Improvement of water-solubility: standing of saccharide-transfer reaction solution at 4° C.; type: physicochemical; conditions: 4° C. for 2 days
[3] = cited from earlier work

Compound: COc1ccc(C2CC(=O)c3c(O)cc(O[C@@H]4O[C@H](CO[C@@H]5O[C@@H](C)[C@H](O)[C@@H](O)[C@H]5O)[C@@H](O[C@H]5O[C@H](CO)[C@@H](O)[C@H](O)[C@H]5O)[C@H](O)[C@H]4O)cc3O2)cc1O (stereo partly drawn) [α-glycosyl hesperidin specimen [II]]
toxicity (conclusion in words) (dd mice): extremely low

hydrolysis by α-glucosidase into hesperidin and D-glucose [1]: hydrolyzable
Compound: α-glycosyl hesperidin

Compound: COc1ccc([C@@H]2CC(=O)c3c(O)cc(O[C@@H]4O[C@H](CO[C@@H]5O[C@@H](C)[C@H](O)[C@@H](O)[C@H]5O)[C@@H](O)[C@H](O)[C@H]4O)cc3O2)cc1O [hesperidin]
appearance of solution after standing [2]: white turbidity
solubility in water ([3]; ambient temperature): about 0.002 w/v %
solubility in water (weight per volume of water) ([3]; ambient temperature): about 1 g in 50 liters of water
solubility in water (in words) [3]: hardly soluble

Compound: COc1ccc(C2CC(=O)c3c(O)cc(O[C@@H]4O[C@H](CO[C@@H]5O[C@@H](C)[C@H](O)[C@@H](O)[C@H]5O)[C@@H](O[C@H]5O[C@H](CO)[C@@H](O)[C@H](O)[C@H]5O)[C@H](O)[C@H]4O)cc3O2)cc1O (stereo partly drawn) [α-glucosyl hesperidin]
hydrolysis by α-glucosidase into hesperidin and D-glucose ([1]; α-glucosidase from pig liver): hydrolyzed
